# Measured values as given in patent US20230002327A1, “SMALL-MOLECULE REGULATOR OF TLR8” (TSINGHUA UNIVERSITY, priority 2019, published 2023).
# Tested on: R848-induced signaling pathway in human peripheral blood mononuclear cells
# Assay: ELISA of TNF-α in R848-treated human peripheral blood mononuclear cells
# Assay type: cell-based
# Details: human peripheral blood mononuclear cells (FIG. 8)
# Description: After 48 hours, suspending cells would adhere onto the surface of the 12-well plate, non-adhered cells and the medium were aspirated, and cells were washed with sterile […] buffer (3×1 mL). RPMI medium was added (1 mL/well), and R848 (1 μg/mL) and various concentrations of Compound 24 or Compound 10 (as a negative control) were further added to treat cells. Or, the same amount of peripheral blood mononuclear cells derived from healthy human were used instead of THP-1 cells for subsequent experiments.
# After 24 hours, the supernatant of the medium was collected and stored in a freezer at −80° C. Cells were washed with PBS (3×1 mL), the 12-well plate was placed on ice, and then 400 μL of lysis buffer (containing protease inhibitor) was added to each well, during which the cells were pipetted every five minutes. After 20 minutes, the mixture was transferred to the corresponding 1.5-mL tube and centrifuged at 13.2K rpm and 4° C. for 20 minutes. 350 μL of the supernatant was collected into a new centrifuge tube and frozen at −80° C.
# Cytokines interleukin-1β(IL-1β), interleukin-6 (IL-6) and tumor necrosis factor (TNF-α) were quantified by enzyme-linked immunosorbent assay (ELISA) according to the instructions of the kit provided by the manufacturer.
structure (smiles),measurement,value
"CSc1nnc(CCCO)n1-c1cc(C)c(C)c(C)c1 [Compound 24, 3-(5-(methylthio)-4-(3,4,5-trimethylphenyl)-4H-1,2,4-triazole-3-yl)propan-1-ol]",inhibitory effect on inflammatory factor TNF-α,significant inhibitory effect
